Measurements as given in patent US20050221381A1, “Method for isolating ligands” (priority 2002, published 2005).
Entries after “also recorded” stand apart in the source; their conditions may differ.

Key:
[1] = system: CD8+ T-cells, HLA-A*0201 positive T2 cells; conditions: interferon-gamma ELIspot
[2] = target: HLA-A2 (Homo sapiens, UniProt P04439, D140Y/D185E/D98H/E176V/E277Q/G131W/G231S/I119V/I121R/I166T/I218V/L300P/L318F/N151K/N90K/P208A/P217A/Q86G/Q94H/R138H/R169H/T345S); conditions: cited from earlier work
[3] = target: T1, soluble DRB1*0401 molecules (DR4) (Homo sapiens, UniProt P01903+P01911, A100K/A169T/F76Y/I96L/K127E/L162R/M171V/N62H/P40V/Q125Y/R42H/S133A/S149N/S66Y/V115G/V209L/W38E); assay type: binding; parameters: key to DR4 binding: +++: high binding affinity; ++: moderate binding affinity; +: low binding affinity; −: no binding; conditions: SDS-stability assay
T1 construct: Soluble HLA class I A*0201 and HLA class II DRA1*0101/DRB1*0101/Ii, DRA1*0101/DRB1*0401/Ii and DRA1*0101/DRB1*0404/Ii molecules were expressed in SC-2 cells; made in house; host or cells: SC-2 cells

[4] = system: isolated CD4+ T cells; test: Synthetic IFN-γ Elispot assay with sHLA DRB1*0401 and anti CD28; assay type: cell-based, human; conditions: sHLA DRB1*0401 loaded with peptide, vs negative control peptide p84 (FIG. 5a)
[5] = target: T2, soluble DRB1*0401 molecules (Homo sapiens, UniProt P01903+P01911, A100K/A169T/F76Y/I96L/K127E/L162R/M171V/N62H/P40V/Q125Y/R42H/S133A/S149N/S66Y/V115G/V209L/W38E); test: Epitope capture from peptide mixtures, gel filtration and MALDI-TOF MS of bound peptides; assay type: binding
T2 construct: Soluble HLA class I A*0201 and HLA class II DRA1*0101/DRB1*0101/Ii, DRA1*0101/DRB1*0401/Ii and DRA1*0101/DRB1*0404/Ii molecules were expressed in SC-2 cells; made in house; host or cells: SC-2 cells
Text: After peptide binding reaction with soluble HLA molecules, HLA-peptide complexes were separated from free peptides by gel-filtration chromatography on Superdex-200 column (AKTAdesign, Amersham Pharmacia Biotech). HLA-containing fractions were collected, and bound peptides were reconstituted from the complexes by adding TFA to the final concentration of 1%. Peptides were desolted by Ziptip purification and analyzed by MALDI-TOF mass-spectrometry.
Second, the ability to capture peptides binding to HLA class II molecules from the mixture of two high affinity ligands was tested. The binding reaction contained 1 μM of soluble DRB1*0401 molecules and 5 μM of each YAR and 1242 peptide. After the HLA-peptide complexes were formed, they were separated from the excess of free peptides by gel filtration chromatography. Fractions containing MHC molecules were collected. Bound peptides were eluted from the complexes and analyzed by mass-spectrometry.
Third, it was investigated if the binding capacity of the high affinity ligand would be influenced by the excess of low affinity peptide. […] Peptide binding was assessed by SDS-stability assay and verified by MS analysis (FIG. 3).
The final concentration of each peptide in binding reaction was 5 μM, except 1236 added in 55 μM, meaning that the concentration of each individual binding peptide was 20-fold lower than final concentration of all peptides. DRB1*0401 molecules were added to 1 μM. The formation of MHC-peptide complexes was evaluated as described above, using single peptides as controls (FIG. 4). […] The result of this analysis yielded the two peptides with highest binding affinities: 1242 and YAR (see Table 1). The peptides with moderate and/or low affinities were not found in the complexes, probably due to the high concentration of strong competitors used in this assay.

[6] = system: CMV; conditions: cited from earlier work
[7] = in vivo; cited from earlier work
[8] = system: CMV mutants resistant to Ganciclovir, Cidofuvir and Foscarnet; conditions: cited from earlier work

## RLLQTGIHV
[1]
  Confirmation as HLA-A*0201 epitope / induction of functional T-cells (in words): induce functional T-cells
[2]
  Binding to HLA-A2 / stabilisation of HLA-A2/β2m/peptide complex: can stabilize; also recorded: has been demonstrated

## YNINISLPSYYPDQKSL [Peptide 1242]
[3]
  Binding to soluble DRB1*0401 molecules (in words): highest
[3]; direct binding of individual peptides, compared with YAR and HA306-318
  DR4 binding: +++
[4]
  Number of induced IFN-γ spots: significantly above the spontaneous IFN-γ secretion
[5]; 1242 5 to 50 μM, 100 μM peptide 1236 (2-20 fold excess), 1 μM DRB1*0401
  Formation of stable MHC-complexes in presence of excess low affinity peptide: does not impede the formation of stable MHC-complexes
[5]; each peptide 5 μM, 1236 55 μM, DRB1*0401 1 μM
  Peptides captured from pool of 10 peptides, MS analysis: captured by DR4 molecules
[5]; mixture of two ligands, 5 μM each, 1 μM DRB1*0401
  Peptides found in complexes with MHC molecules by MS: revealed in the complexes with MHC molecules

## CC(C)[C@H](N)C(=O)OCC(CO)OCn1cnc2c(=O)nc(N)[nH]c21 (stereo partly drawn) [Valganciclovir]
[6]; kidney transplant patients, given for three months
  Incidence of CMV disease: reduced the incidence of CMV disease
[6]; six months after transplantation
  Proportion of patients with biopsy-proven rejection: significant reduction
[7]
  Oral bioavailability: markedly increased

## Fomivirsen
[8]
  Efficacy against multidrug resistant mutants: effective against such mutants
